Values joined by “and” are separate entries in the source; they are usually repeats but may differ in a detail not shown here. Equal values may be shown once. Where a name gives a salt, the structure may show the parent alone. Read-outs that look alike come from different tables or passages of the source.
Key:
SARS‐CoV‐2 M^pro [1] = molecular target: T1, SARS‐CoV‐2 M^pro (Severe acute respiratory syndrome coronavirus 2, UniProt P0DTD1); assay: Determination of IC50 and K i values; format: biochemical; conditions: for Ki: calculated from IC50 with the Cheng‐Prusoff equation
SARS‐CoV‐2 M^pro [2] = molecular target: T1, SARS‐CoV‐2 M^pro; assay: Screening of M^pro inhibition at 10 and 50 µM (fluorogenic substrate Boc‐Abu‐Tle‐Leu‐Gln‐AMC); format: biochemical; conditions: for M^pro inhibition (in words): screened at 10 and 50 µM
SARS‐CoV‐2 M^pro [3] = molecular target: T1, SARS‐CoV‐2 M^pro; assay: Investigation of inhibition reversibility by jump dilution; format: biochemical; conditions: 25 min preincubation, 100‐fold jump dilution
SARS‐CoV‐2 M^pro [4] = molecular target: T1, SARS‐CoV‐2 M^pro; assay: Determination of k inac/K i for irreversible inhibitors; format: biochemical; conditions: for k inac/K i: second‐order rate constant of enzyme inactivation, reactions monitored for 60 min
[5] = Stability in aqueous media
in vitro = conditions: human
SARS‐CoV‐2 [6] = assay: Cellular antiviral activity, virus plaque assay in A549‐ACE2 cells; format: cell-based
A549‐ACE2 cells = conditions: up to 100 µM
[7] = In vitro stability in human plasma; format: in vitro ADME; conditions: plasma diluted to 80% with sodium phosphate buffer, pH 7.4, male human plasma, 37°C, read-out: plasma half‐life t 1/2
Protocol: For the investigation of the in vitro stability of 12 in human plasma, 100 µM of the M^pro inhibitor was incubated with male human plasma at 37°C for five different time periods.
A volume of 30 µL of a 2 mM compound stock solution in DMSO was mixed with 570 µL of a male human plasma solution (Biomol GmbH, Hamburg, Germany) that was diluted to 80% with 0.05 M sodium phosphate buffer, pH 7.4, and prewarmed at 37°C. The final compound concentration was 100 µM, and the DMSO concentration was 5% (v/v). The mixture was divided into aliquots of 100 µL, which were incubated for different time periods and subsequently quenched by the addition of 200 µL of a 0.05 mg/mL reserpine (internal standard) and 2% AcOH (v/v) solution in MeOH. The samples were vortexed for 1 min, stored on ice for 15 min, and subsequently centrifuged at 15,000 rpm and 4°C for 2 min. After filtration through a 0.45 µm polytetrafluoroethylene membrane filter, the resulting solutions were analyzed by HPLC (Jasco Deutschland GmbH, Pfungstadt, Germany). […] The residual proportion was plotted versus incubation time and non‐linear regression according to Y(t) = Y 0 × e^ (‐kt) provided the first‐order rate constant of degradation k, with Y 0 being the compound proportion at t = 0 and Y(t) the residual proportion after a specific incubation time t. Equation t 1/2 = ln2/k afforded the plasma half‐life t 1/2 (n = 2).

SARS‐CoV‐2 [8] = conditions: A549‐ACE2 cells; cited from earlier work
[9] = phase I study, single‐dose treatment, fasted conditions, without ritonavir coadministration; cited from earlier work
[10] = product formation determined after 10 min
[11] = read-out: Inhibition @ [I] = 50 µM (%)
[12] = read-out: Inhibition @ [I] = 10 µM (%)
[13] = [I] = 10 µM, product formation determined after 10 min
[14] = [I] = 50 µM, product formation determined after 10 min

SMILES: CC(C)(C)[C@H](NC(=O)c1cccs1)C(=O)N[C@@H](Cc1ccccc1)C(=O)NN(Cc1cccc(Cl)c1)C(=O)C(F)Cl (mixture of isomers) [Compound 14, N‐{[2S]‐1‐[({2S}‐1‐{2‐(2‐Chloro‐2‐fluoroacetyl)‐2‐(3‐chlorobenzyl)hydrazineyl}‐1‐oxo‐3 phenylpropan‐2‐yl)amino]‐3,3‐dimethyl‐1‐oxobutan‐2‐yl}thiophene‐2‐carboxamide]
- Ki (SARS‐CoV‐2 M^pro [1]): 4.34 ± 0.6 µM
- IC50 (SARS‐CoV‐2 M^pro [1]; [10]): 8.82 ± 1.22 µM
- inhibition at 50 µM (SARS‐CoV‐2 M^pro [2]; [11]): 69%
- M^pro inhibition reversibility (SARS‐CoV‐2 M^pro [3]): irreversible

SMILES: COC(=O)/C=C/N(C)NC(=O)[C@H](Cc1ccccc1)NC(=O)OCc1ccccc1 [Compound 1, Methyl (E)‐3‐{2‐[({benzyloxy}carbonyl)‐L‐phenylalanyl]‐1‐methylhydrazineyl}acrylate]
- inhibition at 10 µM (SARS‐CoV‐2 M^pro [2]; [12]): 4%
- inhibition at 50 µM (SARS‐CoV‐2 M^pro [2]; [11]): 0%
- M^pro inhibition (in words) (SARS‐CoV‐2 M^pro [2]): inactive

SMILES: COC(=O)/C=C(\C(=O)OC)N(C)NC(=O)[C@H](Cc1ccccc1)NC(=O)OCc1ccccc1 [Compound 2, Dimethyl 2‐{2‐[({benzyloxy}carbonyl)‐L‐phenylalanyl]‐1‐methylhydrazineyl}maleate]
- inhibition at 10 µM (SARS‐CoV‐2 M^pro [2]; [12]): 1%
- inhibition at 50 µM (SARS‐CoV‐2 M^pro [2]; [11]): 2%
- M^pro inhibition (in words) (SARS‐CoV‐2 M^pro [2]): inactive

SMILES: CCOC(=O)N(C)NC(=O)[C@H](Cc1ccccc1)NC(=O)OCc1ccccc1 [Compound 3, Ethyl 2‐{[(N‐benzyloxy)carbonyl]‐L‐phenylalanyl}‐1‐5;methylhydrazine‐1‐carboxylate]
- inhibition at 10 µM (SARS‐CoV‐2 M^pro [2]; [12]): 2%
- inhibition at 50 µM (SARS‐CoV‐2 M^pro [2]; [11]): 3%
- M^pro inhibition (in words) (SARS‐CoV‐2 M^pro [2]): did not cause protease inhibition

SMILES: COC(=O)CC(=O)N(C)NC(=O)[C@H](Cc1ccccc1)NC(=O)OCc1ccccc1 [Compound 4, Methyl 3‐{2‐[({benzyloxy}carbonyl)‐L‐phenylalanyl]‐1‐6;methylhydrazineyl}‐3‐oxopropanoate]
- inhibition at 10 µM (SARS‐CoV‐2 M^pro [2]; [12]): 0%
- inhibition at 50 µM (SARS‐CoV‐2 M^pro [2]; [11]): 0%
- M^pro inhibition (in words) (SARS‐CoV‐2 M^pro [2]): inactive

SMILES: CCOC(=O)/C=C/C(=O)N(C)NC(=O)[C@H](Cc1ccccc1)NC(=O)OCc1ccccc1 [Compound 5, Ethyl (E)‐4‐{2‐[({benzyloxy}carbonyl)‐L‐phenylalanyl]‐1‐methylhydrazineyl}‐4‐oxobut‐2‐enoate]
- inhibition at 10 µM (SARS‐CoV‐2 M^pro [2]; [12]): 7%
- inhibition at 50 µM (SARS‐CoV‐2 M^pro [2]; [11]): 13%
- M^pro inhibition (in words) (SARS‐CoV‐2 M^pro [2]): did not cause protease inhibition

SMILES: CN(NC(=O)[C@H](Cc1ccccc1)NC(=O)OCc1ccccc1)C(=O)CCl [Compound 6, Benzyl (S)‐{1‐[2‐(2‐chloroacetyl)‐2‐methylhydrazineyl]‐1‐oxo‐3‐phenylpropan‐2‐yl}carbamate]
- Ki (SARS‐CoV‐2 M^pro [1]): 14.8 ± 0.8 µM
- IC50 (SARS‐CoV‐2 M^pro [1]; [10]): 30.1 ± 1.7 µM
- inhibition at 10 µM (SARS‐CoV‐2 M^pro [2]; [13]): 19%
- inhibition at 50 µM (SARS‐CoV‐2 M^pro [2]; [14]): 55%
- M^pro inhibition reversibility (SARS‐CoV‐2 M^pro [3]): irreversible

SMILES: CN(NC(=O)[C@H](Cc1ccccc1)NC(=O)OCc1ccccc1)C(=O)C(Cl)Cl [Compound 7, Benzyl (S)‐{1‐[2‐(2,2‐dichloroacetyl)‐2‐methylhydrazineyl]‐1‐oxo‐3‐phenylpropan‐2‐yl}carbamate]
- Ki (SARS‐CoV‐2 M^pro [1]): 1.22 ± 0.09 µM
- IC50 (SARS‐CoV‐2 M^pro [1]; [10]): 2.47 ± 0.18 µM
- inhibition at 10 µM (SARS‐CoV‐2 M^pro [2]; [13]): 85%
- inhibition at 50 µM (SARS‐CoV‐2 M^pro [2]; [14]): 100%
- M^pro inhibition reversibility (SARS‐CoV‐2 M^pro [3]): reversible

SMILES: CN(NC(=O)[C@H](Cc1ccccc1)NC(=O)OCc1ccccc1)C(=O)C(F)Cl (stereo partly shown) [Compound 8, Benzyl {[2S]‐1‐[2‐(2‐chloro‐2‐fluoroacetyl)‐2‐methylhydrazinyl]‐1‐oxo‐3‐phenylpropan‐2‐yl}carbamate]
- inhibition at 10 µM (SARS‐CoV‐2 M^pro [2]; [12]): 10%
- inhibition at 50 µM (SARS‐CoV‐2 M^pro [2]; [11]): 16%
- M^pro inhibition (in words) (SARS‐CoV‐2 M^pro [2]): failed to strongly inhibit

SMILES: CN(NC(=O)[C@H](Cc1ccccc1)NC(=O)OCc1ccccc1)C(=O)C(F)(F)Cl [Compound 9, Benzyl (S)‐{1‐[2‐(2‐chloro‐2,2‐difluoroacetyl)‐2‐methylhydrazineyl]‐1‐oxo‐3‐phenylpropan‐2‐yl}carbamate]
- inhibition at 10 µM (SARS‐CoV‐2 M^pro [2]; [12]): 9%
- inhibition at 50 µM (SARS‐CoV‐2 M^pro [2]; [11]): 15%
- M^pro inhibition (in words) (SARS‐CoV‐2 M^pro [2]): failed to strongly inhibit

SMILES: CN(CC#N)NC(=O)[C@H](Cc1ccccc1)NC(=O)OCc1ccccc1 [Compound 10, Benzyl (S)‐{1‐[2‐(cyanomethyl)‐2‐methylhydrazineyl]‐1‐oxo‐3‐phenylpropan‐2‐yl}carbamate]
- inhibition at 10 µM (SARS‐CoV‐2 M^pro [2]; [12]): 10%
- inhibition at 50 µM (SARS‐CoV‐2 M^pro [2]; [11]): 11%
- M^pro inhibition (in words) (SARS‐CoV‐2 M^pro [2]): did not exhibit notable inhibitory properties

SMILES: CN(NC(=O)[C@H](Cc1ccccc1)NC(=O)OCc1ccccc1)S(=O)(=O)F [Compound 11, Benzyl (S)‐{1‐[2‐(fluorosulfonyl)‐2‐methylhydrazineyl]‐1‐oxo‐3‐phenylpropan‐2‐yl}carbamate]
- k inac/K i (SARS‐CoV‐2 M^pro [4]): 54.6 ± 25.0 M⁻¹ s⁻¹ and 54.6 M⁻¹ s⁻¹
- stability in aqueous media [5]: not sufficiently stable
- IC50 (SARS‐CoV‐2 M^pro [1]): 14.7 ± 0.7 µM
- Ki (SARS‐CoV‐2 M^pro [1]): 7.24 ± 0.34 µM
- inhibition at 10 µM (SARS‐CoV‐2 M^pro [2]; [12]): 40%
- M^pro inhibition reversibility (SARS‐CoV‐2 M^pro [3]): irreversible

SMILES: CC(C)(C)[C@H](NC(=O)c1cccs1)C(=O)N[C@@H](Cc1ccccc1)C(=O)NN(Cc1cccc(Cl)c1)C(=O)CCl [Compound 12, N‐{[S]‐1‐[({S}‐1‐{2‐(2‐Chloroacetyl)‐2‐(3‐chlorobenzyl)hydrazineyl}‐1‐oxo‐3‐phenylpropan‐2‐yl)amino]‐3,3‐dimethyl‐1‐oxobutan‐2‐yl}thiophene‐2‐carboxamide]
- improvement of k inac/K i value versus 14 (SARS‐CoV‐2 M^pro [4]; 12 compared with 14): 50 fold
- k inac/K i (SARS‐CoV‐2 M^pro [4]): 78,900 M^−1s^−1 and 78,900 ± 12,800 M^−1s^−1 and 100% inhibition @ 50 µM^a Ki = 0.0230 µM^b kinac/Ki = 78,900 M^-1s^-1 c EC50 = 0.47 µM^d M^−1s^−1
- CC50 at 24 h (in vitro): > 100 µM
- EC50 (SARS‐CoV‐2 [6]; Severe acute respiratory syndrome coronavirus 2, A549‐ACE2 cells, MOI 0.1, 24 h postinfection, plaque assay, read-out: EC50): 0.47 µM
- Ki (SARS‐CoV‐2 M^pro [1]): 0.023 ± 0.0017 µM
- IC50 (SARS‐CoV‐2 M^pro [1]; [10]): 0.0466 ± 0.0034 µM
- cytotoxicity (A549‐ACE2 cells): no cytotoxicity
- inhibition at 50 µM (SARS‐CoV‐2 M^pro [2]; [14]): 100%
- half-life at 100 µM [7]: 1.6 ± 0.148 h
- M^pro inhibition reversibility (SARS‐CoV‐2 M^pro [3]): irreversible

SMILES: CC(C)(C)[C@H](NC(=O)c1cccs1)C(=O)N[C@@H](Cc1ccccc1)C(=O)NN(Cc1cccc(Cl)c1)C(=O)C(Cl)Cl [Compound 13, N‐{[S]‐1‐[({S}‐1‐{2‐(3‐Chlorobenzyl)‐2‐(2,2‐dichloroacetyl)hydrazineyl}‐1‐oxo‐3‐phenylpropan‐2‐yl)amino]‐3,3‐dimethyl‐1‐oxobutan‐2‐yl}thiophene‐2‐carboxamide]
- inhibition at 50 µM (SARS‐CoV‐2 M^pro [2]; [11]): < 50%
- M^pro inhibition reversibility (SARS‐CoV‐2 M^pro [3]): Reversible

SMILES: CCN(CC)CCOC(=O)c1ccc(N)cc1 [Procaine hydrochloride, reference compound]
- half-life at 100 µM [7]: 0.13 ± 0.0157 h

SMILES: Cn1cnc(Cn2c(=O)[nH]/c(=N\c3cc4cn(C)nc4cc3Cl)n(Cc3cc(F)c(F)cc3F)c2=O)n1 [ensitrelvir, reference compound]
- CC50 (in vitro): > 100 µM
- EC50 (SARS‐CoV‐2 [6]; Severe acute respiratory syndrome coronavirus 2, A549-ACE2, 24 h): 0.028 µM

SMILES: CC(C)(C)[C@H](NC(=O)C(F)(F)F)C(=O)N1C[C@H]2[C@@H]([C@H]1C(=O)N[C@H](C#N)C[C@@H]1CCNC1=O)C2(C)C [nirmatrelvir]
- EC50 (SARS‐CoV‐2 [8]): 0.054 µM
- plasma half‐life [9]: 2.03 h

Source: PMC12723578 (Archiv Der Pharmazie, 2025)
